Reference: patent US20250230138A1, “COMPOUNDS HAVING A T-STRUCTURE FORMED BY AT LEAST FOUR CYCLES FOR USE IN THE TREATMENT OF CANCER AND OTHER INDICATIONS” (TheRas, Inc., priority 2022, published 2025)
Like-named read-outs stand apart in the source and are kept apart here.

Experiments:
[1] = target: Cys242 in human PIK3CA (157-299) (Homo sapiens (Human), UniProt P42336); experiment: Covalent modification assay using MALDI-TOF MS; assay type: biochemical; conditions: 4 h reaction time point
Method in brief: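 PIK3CA (157-299), 3.33 or 1 μM in 20 mM HEPES, 150 mM NaCl, 2 mM MgCl2, pH 7.3, was incubated with compound at room temperature in the dark for 15 min, 30 min, 2 h or 4 h. Linear MALDI-TOF read-out; % modification = adduct peak height over summed heights of all protein species.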

pAKT in BT474 cells = experiment: Cell-based pAKT HTRF assay in BT474 cells; conditions: BT474 cells, 4 hr incubation, read-out: pAKT inhibition IC50 in BT474 cells
Method in brief: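 Treatment lasts 4 hr in DMEM/10% FBS at 0.25% DMSO over nine 3-fold dilutions from 3 μM. The lysate is then probed by HTRF.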

[2] = 3.33 μM protein target, 1:7.5 protein to compound ratio (compounds 1-852)
[3] = Homo sapiens, BT-474, Compounds 10-999
[4] = 1 μM protein target, 1:5 protein to compound ratio (compounds 853-1279)

Sequence of Cys242 in human PIK3CA (157-299) (P42336 157-299): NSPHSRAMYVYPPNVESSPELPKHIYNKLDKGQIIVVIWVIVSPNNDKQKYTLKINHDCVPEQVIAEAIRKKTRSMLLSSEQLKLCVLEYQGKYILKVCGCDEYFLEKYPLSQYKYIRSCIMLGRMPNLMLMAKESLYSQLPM

Row | IC50 (pAKT in BT474 cells; [3]) [nM] | IC50 (pAKT in BT474 cells; Compounds 10-999) [nM] | IC50 (pAKT in BT474 cells; Compounds 1000-1279) [nM] | SMILES | % of modification [1, 2] | % of modification [1, 4]
1 | 100 to 1000 | – | – | C=CC(=O)N1CCc2nc(-c3nc(-c4ccc5c(c4)CCNC5)c4c(F)csc4c3-c3c(F)cc(F)cc3OCCOC)sc2C1 [Compound 434, 1-[2-[7-[2,4-difluoro-6-(2-methoxyethoxy)phenyl]-3-fluoro-4-(1,2,3,4-tetrahydroisoquinolin-6-yl)thieno[3,2-c]pyridin-6-yl]-6,7-dihydro-4H-thiazolo[5,4-c]pyridin-5-yl]prop-2-en-1-one] | A (percent of modification of PIK3CA protein ≥75%) | –
2 | – | < 100 | – | C=CC(=O)N1CCn2nc(-c3nc(-c4ccc(OCCN(C)C)cc4)c4ccsc4c3-c3c(F)cc(F)cc3OCCOC)cc2C1C (stereo not drawn) [Compound 993] | – | A (percent of modification of PIK3CA protein ≥75%)
3 | – | < 100 | – | C=CC(=O)N1CCc2ncc(-c3nc(-c4ccc5c(c4)CCNC5)c4c(c3-c3ccc(F)cc3OCCOC)CCC4)cc2C1 [Compound 88] | A (percent of modification of PIK3CA protein ≥75%) | –
4 | – | – | < 100 | C=CC(=O)N1CCn2nc(-c3nc(-c4ccc(C5(C(=O)NC)CC5)cc4)c4ccsc4c3-c3c(F)cc(F)cc3OCCOC)cc2[C@H]1C [Compound 1134] | – | A (percent of modification of PIK3CA protein ≥75%)
5 | – | – | < 100 | C=CC(=O)N1CCn2nc(-c3nc(-c4ccc(C5CCCN5C)cc4)c4ccsc4c3-c3c(F)cc(F)cc3OCCOC)cc2C1C (stereo not drawn) [Compound 1224] | – | A (percent of modification of PIK3CA protein ≥75%)
6 | – | – | < 100 | C=CC(=O)N1CCn2nc(-c3nc(-c4ccc5c(c4)CN(C)CC5)c4ccsc4c3-c3c(F)cc(F)cc3OCCO)cc2[C@H]1C [Compound 1136] | – | A (percent of modification of PIK3CA protein ≥75%)
7 | – | < 100 | – | C=CC(=O)N1CCn2nc(-c3nc(-c4cnc5c(c4)CN(C)CC5)c4ccsc4c3-c3c(F)cc(F)cc3OCCOC)cc2C1C (stereo not drawn) [Compound 929] | – | A (percent of modification of PIK3CA protein ≥75%)
8 | – | 100 to 1000 | – | C=CC(=O)N1CC[C@H](n2cc(-c3nc(-c4ccnc(N)c4)c4ccsc4c3-c3ccc(F)cc3OCC3CCNC(=O)C3)ccc2=O)C1 (stereo partly drawn) [Compound 241] | A (percent of modification of PIK3CA protein ≥75%) | –
9 | – | – | 100 to 1000 | C=CC(=O)N1CCn2nc(-c3nc(-c4ccc(C5(C(=O)NC6CN(C)C6)CC5)cc4)c4ccsc4c3-c3c(F)cc(F)cc3OCCOC)cc2C1C (stereo not drawn) [Compound 1157] | – | A (percent of modification of PIK3CA protein ≥75%)
10 | – | < 100 | – | C=CC(=O)N1Cc2cc(-c3nc(-c4ccc5c(c4)CCN(C)C5)c4ccsc4c3-c3c(F)cc(F)cc3OCCOC)nn2[C@@H](C)C1 [Compound 560] | A (percent of modification of PIK3CA protein ≥75%) | –
11 | – | 1000 to 3000 | – | C=CC(=O)NCc1cc(-c2nc(-c3ccc4c(c3)CCNC4)c3ccsc3c2-c2ccc(F)cc2OCCOC)ccc1OC [Compound 74] | D (percent of modification <25%) | –
12 | – | – | < 100 | C=CC(=O)N1CCc2nc(-c3nc(-c4ccc5c(c4)NC(=O)C5)c4ccsc4c3-c3c(F)cc(F)cc3OCCOC)sc2C1 [Compound 1003] | – | A (percent of modification of PIK3CA protein ≥75%)
13 | – | < 100 | – | C=CC(=O)N1CCc2nc(-c3nc(-c4ccc5c(c4)CCN(C)C5)c4ccsc4c3-c3c(F)cc(F)cc3OC(C)C)sc2C1 [Compound 312] | A (percent of modification of PIK3CA protein ≥75%) | –
14 | – | 100 to 1000 | – | C=CC(=O)N1CCc2nc(-c3nc(-c4ccc(C(C)(C)O)cc4)c4ccsc4c3-c3c(F)cc(F)cc3OCCOC)sc2C1 [Compound 419] | A (percent of modification of PIK3CA protein ≥75%) | –
15 | 100 to 1000 | – | – | C=CC(=O)N1CC(n2cc(-c3nc(-c4ccc5c(c4)CCNC5)c4ccnn4c3-c3ccc(F)cc3OC)cn2)C1 [Compound 169, 1-[3-[4-[7-(4-fluoro-2-methoxy-phenyl)-4-(1,2,3,4-tetrahydroisoquinolin-6-yl)pyrazolo[1,5-a]pyrazin-6-yl]pyrazol-1-yl]azetidin-1-yl]prop-2-en-1-one] | B (50%<percent of modification <75%) | –
16 | – | < 100 | – | C=CC(=O)N1Cc2cc(-c3nc(-c4ccc5ncc(=O)n(C)c5c4)c4ccsc4c3-c3c(F)cc(F)cc3OCCOC)nn2CC1C (stereo not drawn) [Compound 856] | – | A (percent of modification of PIK3CA protein ≥75%)
17 | – | < 100 | – | C=CC(=O)N1Cc2cc(-c3nc(-c4cnc(C)nc4)c4ccsc4c3-c3c(F)cc(F)cc3OC[C@@H](C)O)nn2C[C@H]1C [Compound 757] | A (percent of modification of PIK3CA protein ≥75%) | –
18 | – | – | > 1000 | C=CC(=O)N1CCc2ccc(-c3nc(-c4ccc5c(c4)C(=O)NC5)c4ccsc4c3-c3c(F)cc(F)cc3OCCOC)cc2C1 [Compound 1067] | – | D (percent of modification <25%)

Row | IC50 (pAKT in BT474 cells; [3]) [nM] | IC50 (pAKT in BT474 cells; Compounds 10-999) [nM] | IC50 (pAKT in BT474 cells; Compounds 1000-1279) [nM] | SMILES | % of modification [1, 2] | % of modification [1, 4]
19 | – | < 100 | – | C=CC(=O)N1CCn2nc(-c3nc(-c4ccc5oc(C)nc5c4)c4ccsc4c3-c3c(F)cc(F)cc3OCCO)cc2C1C (stereo not drawn) [Compound 789] | A (percent of modification of PIK3CA protein ≥75%) | –
20 | – | 100 to 1000 | – | C=CC(=O)N1CCn2nc(-c3nc(-c4ccnc(N(C)C)c4)c4ccsc4c3-c3c(F)cc(F)cc3OCCOC)cc2[C@@H]1C [Compound 965] | – | A (percent of modification of PIK3CA protein ≥75%)
21 | – | – | < 100 | C=CC(=O)N1CCn2nc(-c3nc(-c4ccc5c(c4)CCNC5=O)c4ccsc4c3-c3c(F)cc(F)cc3OC)cc2C1C (stereo not drawn) [Compound 1120] | – | A (percent of modification of PIK3CA protein ≥75%)
22 | – | < 100 | – | C=CC(=O)N1Cc2cc(-c3nc(-c4cnn(C5CCC5)c4)c4ccsc4c3-c3c(F)cc(F)cc3OCCOC)nn2C[C@H]1C [Compound 723] | A (percent of modification of PIK3CA protein ≥75%) | –
23 | – | < 100 | – | C=CC(=O)N1Cc2cc(-c3nc(-c4ccc5nn(C)cc5c4)c4ccsc4c3-c3c(F)cc(F)cc3OC(C)C)nn2CC1C (stereo not drawn) [Compound 530] | A (percent of modification of PIK3CA protein ≥75%) | –
24 | – | > 3000 | – | C=CC(=O)N1Cc2cc(-c3nc(-c4cnn(C)c4)c4ccsc4c3-c3c(F)cc(F)cc3OC(C)C)nn2C[C@H]1C [Compound 456, 1-((R)-2-((R)-7-(2,4-difluoro-6-isopropoxyphenyl)-4-(1-methyl-1H-pyrazol-4-yl)thieno[3,2-c]pyridin-6-yl)-6-methyl-6,7-dihydropyrazolo[1,5-a]pyrazin-5(4H)-yl)prop-2-en-1-one] | D (percent of modification <25%) | –
25 | – | < 100 | – | C=CC(=O)N1CCn2nc(-c3nc(-c4ccc5c(c4)[C@@H](O)CC5)c4ccsc4c3-c3ccc(F)cc3OCCOC)cc2C1 [Compound 262] | A (percent of modification of PIK3CA protein ≥75%) | –
26 | – | < 100 | – | C=CC(=O)N1CCn2nc(-c3nc(-c4cnn(C)c4)c4ccsc4c3-c3c(F)cc(F)cc3OC[C@@H](C)O)cc2[C@@H]1C [Compound 547] | A (percent of modification of PIK3CA protein ≥75%) | –
27 | – | < 100 | – | C=CC(=O)N1CCc2ncc(-c3nc(-c4cnn(C)c4)c4ccsc4c3-c3c(F)cc(F)cc3OC)cc2C1 [Compound 405] | A (percent of modification of PIK3CA protein ≥75%) | –
28 | – | – | < 100 | C=CC(=O)N1CCn2nc(-c3nc(-c4cccc(CCN(C)C)c4)c4ccsc4c3-c3c(F)cc(F)cc3OCCOC)cc2C1C (stereo not drawn) [Compound 1084] | – | A (percent of modification of PIK3CA protein ≥75%)
29 | – | > 3000 | – | C=CC(=O)N1CCC(n2cc(-c3nc(-c4ccc5c(c4)CCNC5)c4ccsc4c3-c3ccc(F)cc3C#N)cn2)CC1 [Compound 93] | C (25%≤percent of modification <50%) | –
30 | – | < 100 | – | C=CC(=O)N1CCc2nc(-c3nc(-c4ccc5c(c4)CCNC5)c4ccsc4c3-c3ccc(F)cc3OCCO)sc2C1 [Compound 130] | A (percent of modification of PIK3CA protein ≥75%) | –
31 | – | – | < 100 | C=CC(=O)N1CCc2ccc(-c3nc(-c4ccc5c(c4)CNC(=O)C5)c4ccsc4c3-c3c(F)cc(F)cc3OCCOC)cc2C1 [Compound 1108] | – | A (percent of modification of PIK3CA protein ≥75%)
32 | – | < 100 | – | C=CC(=O)N1CCn2nc(-c3nc(-c4ccc5c(c4)ncn5C)c4ccsc4c3-c3c(F)cc(F)cc3OCCO)cc2[C@H]1C [Compound 775] | A (percent of modification of PIK3CA protein ≥75%) | –
33 | – | – | 100 to 1000 | C=CC(=O)N1CCn2nc(-c3nc(N4CCC5(CN(C)C5)C4)c4ccsc4c3-c3c(F)cc(F)cc3OCCOC)cc2C1C (stereo not drawn) [Compound 1055] | – | C (25%≤percent of modification <50%)
34 | – | 100 to 1000 | – | C=CC(=O)N1CCn2nc(-c3nc(-c4ccc5c(c4)CCN(C)CC5)c4ccsc4c3-c3c(F)cc(F)cc3OCCOC)cc2C1C (stereo not drawn) [Compound 994] | – | D (percent of modification <25%)
35 | – | > 3000 | – | C=C(F)C(=O)N1Cc2cc(-c3nc(-c4ccc5c(c4)CCN(C)C5)c4ccsc4c3-c3c(F)cc(F)cc3OC(C)C)nn2CC1C (single isomer, unassigned) [Compound 500] | D (percent of modification <25%) | –
36 | – | < 100 | – | C=C(F)C(=O)N1CCn2nc(-c3nc(-c4ccc5c(c4)CNC5=O)c4ccsc4c3-c3c(F)cc(F)cc3OC(C)C)cc2C1 [Compound 341] | B (50%<percent of modification <75%) | –
